Data reported in ChEMBL document CHEMBL1134097, “Cyclooxygenase-inhibitory and antioxidant constituents of the aerial parts of Antirhea acutata” (Bioorg Med Chem Lett, 2001).

How the values were obtained:
[1] = target: T1, Prostaglandin G/H synthase 2 (Homo sapiens, UniProt P35354); assay: Activity against Prostaglandin G/H synthase 2 at > 70 ug/mL; inactive
T1 sequence (P35354 whole entry): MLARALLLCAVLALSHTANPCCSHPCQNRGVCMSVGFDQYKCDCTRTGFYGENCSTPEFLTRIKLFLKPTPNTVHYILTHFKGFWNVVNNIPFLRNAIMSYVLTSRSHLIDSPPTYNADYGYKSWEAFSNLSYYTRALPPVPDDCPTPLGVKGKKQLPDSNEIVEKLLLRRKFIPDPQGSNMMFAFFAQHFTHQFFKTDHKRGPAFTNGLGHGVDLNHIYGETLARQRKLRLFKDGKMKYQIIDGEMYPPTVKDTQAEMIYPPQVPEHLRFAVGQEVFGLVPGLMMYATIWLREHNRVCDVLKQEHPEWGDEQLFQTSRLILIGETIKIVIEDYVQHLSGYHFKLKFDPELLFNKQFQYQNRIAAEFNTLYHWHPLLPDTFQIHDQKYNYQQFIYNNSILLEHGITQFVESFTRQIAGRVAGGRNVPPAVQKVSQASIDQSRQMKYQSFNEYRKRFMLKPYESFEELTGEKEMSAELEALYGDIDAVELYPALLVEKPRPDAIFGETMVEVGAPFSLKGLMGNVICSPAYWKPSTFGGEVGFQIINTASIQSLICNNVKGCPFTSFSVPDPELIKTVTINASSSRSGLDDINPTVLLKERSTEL

[2] = target: T2, Prostaglandin G/H synthase 1 (Homo sapiens, UniProt P23219); assay: Activity against Prostaglandin G/H synthase 1 at > 70 ug/mL; inactive
T2 sequence (P23219 whole entry): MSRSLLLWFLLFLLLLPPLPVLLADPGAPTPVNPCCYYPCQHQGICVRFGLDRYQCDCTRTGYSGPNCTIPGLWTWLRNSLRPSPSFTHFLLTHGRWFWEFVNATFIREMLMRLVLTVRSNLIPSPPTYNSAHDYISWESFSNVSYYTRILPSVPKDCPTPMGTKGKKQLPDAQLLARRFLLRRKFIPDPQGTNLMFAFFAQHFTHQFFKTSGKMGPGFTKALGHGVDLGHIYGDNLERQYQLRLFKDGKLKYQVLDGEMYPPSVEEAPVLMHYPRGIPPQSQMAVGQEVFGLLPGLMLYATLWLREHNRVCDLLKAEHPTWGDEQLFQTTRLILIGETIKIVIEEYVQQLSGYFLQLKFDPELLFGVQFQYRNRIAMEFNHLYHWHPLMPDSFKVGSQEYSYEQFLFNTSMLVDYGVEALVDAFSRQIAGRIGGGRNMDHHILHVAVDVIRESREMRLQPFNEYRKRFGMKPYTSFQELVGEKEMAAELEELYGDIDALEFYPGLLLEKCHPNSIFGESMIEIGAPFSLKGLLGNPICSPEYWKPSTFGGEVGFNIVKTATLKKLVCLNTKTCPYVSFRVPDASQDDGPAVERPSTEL

[3] = target: T1, Prostaglandin G/H synthase 2; assay: Inhibitory concentration against Prostaglandin G/H synthase 2
[4] = target: T2, Prostaglandin G/H synthase 1; assay: Inhibitory concentration against Prostaglandin G/H synthase 1
[5] = Activity determined by 1,1-diphenyl-2-picrylhydrazyl (DPPH) free radical antioxidant assay; assay type: functional
[6] = Activity determined by cytochrome c reduction antioxidant assay; assay type: functional

With C[C@H](CC[C@H](O)C(C)(C)O)[C@H]1CC[C@@]2(C)[C@@H]3CCC4[C@@]5(CC[C@H](O)[C@@]4(C)C(=O)O)C[C@@]35CC[C@]12C (stereo partly specified) the IC50 [1] was “Not Active” and the IC50 [2] was “Not Active”.
An IC50 [3] of 4.7 µM and an IC50 [4] of 43.7 µM were found for C=C[C@@H]1[C@@H](O)C[C@@H]2[C@]3(CC[C@]4(C)[C@@H]([C@H](C)CCC=C(C)C)CC[C@@]24C)C[C@]13CCC(=O)O in this work.
An IC50 [5] of 29.1 µM and an IC50 [6] of 16.3 µM were found for COC(=O)C[C@H](c1ccc(O)c(O)c1)c1c(O)cc(O)c2c1O[C@H](c1ccc(O)c(O)c1)[C@H](O)C2 in this work.
